# Reference: patent US20260125378A2, “Heterocyclic Compounds” (BeOne Medicines I GmbH, priority 2023, published 2026)
# Legend:
# [1] = biological target: T1, Full length DGKα (D21-10BG, SignalChem) (Homo sapiens, UniProt P23743); experiment: Biochemical DGK IC50 assay (ADP-Glo, lipid micelle substrate), DGKα; conditions: 1 hour preincubation, 1 hour reaction, room temperature
# T1 construct: Full length DGKα (D21-10BG, SignalChem); purchased SignalChem D21-10BG
# How it was run: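 ADP-Glo luminescence quantified ADP produced after a 1 h room-temperature reaction of full-length DGKα on DAG/PS micelles, in HEPES buffer containing MgCl2, CaCl2, vanadate, BSA and Tween-20. IC50 values derive from activity inhibition over a compound concentration series.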
# [2] = biological target: T2, Full length DGKζ (in-house protein M1-V929) (Homo sapiens, UniProt Q13574); experiment: Biochemical DGK IC50 assay (ADP-Glo, lipid micelle substrate), DGKζ; conditions: 1 hour preincubation, 1 hour reaction, room temperature
# T2 construct: His (N); TEV site (N); made in house; host or cells: Sf9 insect cells (Bac-to-Bac baculovirus)
# T2 sequence (Q13574 1-929 isoform Q13574-4): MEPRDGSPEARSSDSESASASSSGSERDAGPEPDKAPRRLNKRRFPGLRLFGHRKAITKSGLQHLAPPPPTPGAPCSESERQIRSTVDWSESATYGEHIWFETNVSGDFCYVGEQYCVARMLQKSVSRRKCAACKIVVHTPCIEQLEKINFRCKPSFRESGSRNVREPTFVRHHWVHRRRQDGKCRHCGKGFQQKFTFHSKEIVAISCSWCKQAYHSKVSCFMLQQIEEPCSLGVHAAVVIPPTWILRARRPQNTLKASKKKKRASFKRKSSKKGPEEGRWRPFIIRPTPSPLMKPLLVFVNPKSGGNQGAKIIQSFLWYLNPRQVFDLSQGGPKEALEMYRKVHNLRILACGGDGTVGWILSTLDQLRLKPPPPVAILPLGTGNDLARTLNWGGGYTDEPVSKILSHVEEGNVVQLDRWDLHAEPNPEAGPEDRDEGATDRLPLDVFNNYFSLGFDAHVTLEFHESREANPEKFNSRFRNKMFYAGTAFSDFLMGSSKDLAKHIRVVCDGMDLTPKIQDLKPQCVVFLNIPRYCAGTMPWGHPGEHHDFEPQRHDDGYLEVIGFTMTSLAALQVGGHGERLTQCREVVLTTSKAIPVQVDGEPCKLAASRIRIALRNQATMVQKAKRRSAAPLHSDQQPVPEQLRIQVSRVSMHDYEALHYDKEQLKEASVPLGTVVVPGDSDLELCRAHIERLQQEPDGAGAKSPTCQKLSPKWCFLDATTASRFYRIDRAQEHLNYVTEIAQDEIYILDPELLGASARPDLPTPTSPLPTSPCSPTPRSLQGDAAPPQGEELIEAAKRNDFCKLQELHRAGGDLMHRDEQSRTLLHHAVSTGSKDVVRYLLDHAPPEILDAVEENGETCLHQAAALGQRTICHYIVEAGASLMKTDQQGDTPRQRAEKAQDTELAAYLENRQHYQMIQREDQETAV
# How it was run: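 Enzyme: full-length human DGKζ M1-V929, produced in baculovirus-infected Sf9 cells; substrate DAG/PS micelles. Buffer 50 mM HEPES, 10 mM MgCl2, 0.01 mM CaCl2, 0.1 mM Na3VO4.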
# T1 sequence (P23743 whole entry): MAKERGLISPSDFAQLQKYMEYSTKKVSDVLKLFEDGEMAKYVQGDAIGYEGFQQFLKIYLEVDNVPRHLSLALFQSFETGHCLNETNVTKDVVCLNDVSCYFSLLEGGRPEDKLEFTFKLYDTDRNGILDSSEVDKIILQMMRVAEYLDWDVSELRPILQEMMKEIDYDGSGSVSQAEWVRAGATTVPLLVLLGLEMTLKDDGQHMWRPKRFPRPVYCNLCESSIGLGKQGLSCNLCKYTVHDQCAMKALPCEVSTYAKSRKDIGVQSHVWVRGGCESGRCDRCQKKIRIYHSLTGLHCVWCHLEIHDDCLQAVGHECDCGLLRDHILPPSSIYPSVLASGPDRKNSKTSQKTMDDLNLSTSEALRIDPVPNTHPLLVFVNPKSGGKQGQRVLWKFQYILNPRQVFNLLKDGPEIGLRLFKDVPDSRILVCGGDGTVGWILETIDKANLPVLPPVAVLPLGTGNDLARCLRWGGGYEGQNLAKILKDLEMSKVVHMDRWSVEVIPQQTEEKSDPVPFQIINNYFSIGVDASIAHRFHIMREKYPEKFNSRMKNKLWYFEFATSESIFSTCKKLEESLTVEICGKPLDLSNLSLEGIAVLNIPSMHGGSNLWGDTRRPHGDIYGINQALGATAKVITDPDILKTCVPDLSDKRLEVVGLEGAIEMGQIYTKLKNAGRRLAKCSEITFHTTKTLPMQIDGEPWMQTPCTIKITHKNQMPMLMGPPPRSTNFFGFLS
Compound,IC50 [1],IC50 [2]
"CCn1c(CC#N)nc2c(N3C[C@@H](C)N(C(C)c4cccc(C(F)(F)F)n4)C[C@@H]3C)nc(=O)n(C)c21 (single isomer, unassigned) [Compound A118a]",> 150000 nM,4820 nM
"CCn1c(CC#N)nc2c(N3C[C@@H](C)N(C(C)c4nc5c(cc4Cl)OCC(C)(C)O5)C[C@@H]3C)nc(=O)n(C)c21 (stereo partly drawn) [Compound A160, 2-(6-((2S,5R)-4-(1-(7-chloro-3,3-dimethyl-2,3-dihydro-[1,4]dioxino[2,3-b]pyridin-6-yl)ethyl)-2,5-dimethylpiperazin-1-yl)-9-ethyl-3-methyl-2-oxo-3,9-dihydro-2H-purin-8-yl)acetonitrile]",> 150000 nM,331 nM
"CCn1c(CC#N)nc2c(N3C[C@@H](C)N(C(C)c4nc5c(cc4F)OCC(C)(C)O5)C[C@@H]3C)nc(=O)n(C)c21 (single isomer, unassigned) [Compound A161a]",71800 nM,24 nM
"CCn1c(CC#N)nc2c(N3C[C@@H](C)N(C(C)c4ccc5nc(C)sc5c4)C[C@@H]3C)nc(=O)n(C)c21 (single isomer, unassigned) [Compound A56b]",50900 nM,23 nM
"CCn1c(CC#N)nc2c(N3C[C@@H](C)N(C(C)c4ccc5c(c4)OC(C)(C)CO5)C[C@@H]3C)nc(=O)n(C)c21 (single isomer, unassigned) [Compound A60b]",> 150000 nM,206 nM
"CCn1c(CC#N)nc2c(N3C[C@@H](C)N(C(C)c4ccnc(N5CCC5)c4)C[C@@H]3C)nc(=O)n(C)c21 (stereo partly drawn) [Compound A121, 2-(6-((2S,5R)-4-(1-(2-(azetidin-1-yl)pyridin-4-yl)ethyl)-2,5-dimethylpiperazin-1-yl)-9-ethyl-3-methyl-2-oxo-3,9-dihydro-2H-purin-8-yl)acetonitrile]",> 150000 nM,212 nM
"CCn1c(CC#N)nc2c(N3C[C@@H](C)N(C(C)c4ccc(F)c(C(F)(F)F)c4)C[C@@H]3C)nc(=O)n(C)c21 (stereo partly drawn) [Compound A113, 2-(9-ethyl-6-((2S,5R)-4-(1-(4-fluoro-3-(trifluoromethyl)phenyl)ethyl)-2,5-dimethylpiperazin-1-yl)-3-methyl-2-oxo-3,9-dihydro-2H-purin-8-yl)acetonitrile]",> 150000 nM,18 nM
"CCn1c(CC#N)nc2c(N3C[C@@H](C)N(C(C)c4ccc(OC)c(C(C)(F)F)c4)C[C@@H]3C)nc(=O)n(C)c21 (stereo partly drawn) [Compound A39, 2-(6-((2S,5R)-4-(1-(3-(1,1-difluoroethyl)-4-methoxyphenyl)ethyl)-2,5-dimethylpiperazin-1-yl)-9-ethyl-3-methyl-2-oxo-3,9-dihydro-2H-purin-8-yl)acetonitrile]",> 150000 nM,211 nM
"CCn1c(CC#N)nc2c(N3C[C@@H](C)N(C(C)c4cccc(C5(C)CC5)c4)C[C@@H]3C)nc(=O)n(C)c21 (stereo partly drawn) [Compound A126, 2-(6-((2S,5R)-2,5-dimethyl-4-(1-(3-(1-methylcyclopropyl)phenyl)ethyl)piperazin-1-yl)-9-ethyl-3-methyl-2-oxo-3,9-dihydro-2H-purin-8-yl)acetonitrile]",124000 nM,24 nM
"CCc1nc2cc(C(C)N3C[C@H](C)N(c4nc(=O)n(C)c5c4nc(CC#N)n5CC)C[C@H]3C)ccc2s1 (single isomer, unassigned) [Compound A95a]",24700 nM,11 nM
"COC[C@H]1CN(C(C)c2ccc(F)cc2C(F)(F)F)[C@H](C)CN1c1nc(=O)n(C)c2c1nc(CC#N)n2C (stereo partly drawn) [Compound A10, 2-(6-((2R,5R)-4-(1-(4-fluoro-2-(trifluoromethyl)phenyl)ethyl)-2-(methoxymethyl)-5-methylpiperazin-1-yl)-3,9-dimethyl-2-oxo-3,9-dihydro-2H-purin-8-yl)acetonitrile]",> 10000 nM,25 nM
"CCn1c(CC#N)nc2c(N3C[C@@H](C)N(C(C)c4cc(F)c5c(c4)OC(C)(C)O5)C[C@@H]3C)c(F)c(=O)n(C)c21 (stereo partly drawn) [Compound A189, 2-(3-ethyl-6-fluoro-7-((2S,5R)-4-(1-(7-fluoro-2,2-dimethylbenzo[d][1,3]dioxol-5-yl)ethyl)-2,5-dimethylpiperazin-1-yl)-4-methyl-5-oxo-4,5-dihydro-3H-imidazo[4,5-b]pyridin-2-yl)acetonitrile]",> 150000 nM,34 nM
"CCn1c(CC#N)nc2c(N3C[C@@H](C)N(C(C)c4ccc5c(c4)C(F)(F)CCO5)C[C@@H]3C)nc(=O)n(C)c21 (stereo partly drawn) [Compound A78, 2-(6-((2S,5R)-4-(1-(4,4-difluorochroman-6-yl)ethyl)-2,5-dimethylpiperazin-1-yl)-9-ethyl-3-methyl-2-oxo-3,9-dihydro-2H-purin-8-yl)acetonitrile]",102000 nM,7 nM
"CCn1c(CC#N)nc2c(N3C[C@@H](C)N(C(C)c4cc(F)c5c(n4)OC(C)(C)CO5)C[C@@H]3C)nc(=O)n(C)c21 (mixture of isomers) [Compound A163, 2-(9-ethyl-6-((2S,5R)-4-(1-(8-fluoro-3,3-dimethyl-2,3-dihydro-[1,4]dioxino[2,3-b]pyridin-6-yl)ethyl)-2,5-dimethylpiperazin-1-yl)-3-methyl-2-oxo-3,9-dihydro-2H-purin-8-yl)acetonitrile]",> 150000 nM,48 nM
"CCn1c(CC#N)nc2c(N3C[C@@H](C)N(C(C)c4ccc5c(c4)CN(CC(F)(F)F)C5=O)C[C@@H]3C)nc(=O)n(C)c21 (stereo partly drawn) [Compound A82, 2-(6-((2S,5R)-2,5-dimethyl-4-(1-(1-oxo-2-(2,2,2-trifluoroethyl)isoindolin-5-yl)ethyl)piperazin-1-yl)-9-ethyl-3-methyl-2-oxo-3,9-dihydro-2H-purin-8-yl)acetonitrile]",9520 nM,201 nM
"CC(c1ccc2c(c1)OC(C)(C)O2)N1C[C@H](C)N(c2nc(=O)n(C)c3c2nc(CC#N)n3C)C[C@H]1C (single isomer, unassigned) [Compound A98b]",19700 nM,262 nM
"CC(c1ccc2c(c1)OC(C)(C)CO2)N1C[C@H](C)N(c2nc(=O)n(C)c3c2nc(CC#N)n3C2CC2)C[C@H]1C (stereo partly drawn) [Compound A86, 2-(9-cyclopropyl-6-((2S,5R)-4-(1-(3,3-dimethyl-2,3-dihydrobenzo[b][1,4]dioxin-6-yl)ethyl)-2,5-dimethylpiperazin-1-yl)-3-methyl-2-oxo-3,9-dihydro-2H-purin-8-yl)acetonitrile]",> 150000 nM,67 nM
"CCn1c(CC#N)nc2c(N3C[C@@H](C)N(C(C)c4ccc5c(c4)OC(F)(F)O5)C[C@@H]3C)nc(=O)n(C)c21 (single isomer, unassigned) [Compound A99a]",34500 nM,71 nM
"CCn1c(CC#N)nc2c(N3C[C@@H](C)N(C(C)c4nc5c(cc4F)OCC(C)(C)O5)C[C@@H]3C)nc(=O)n(C)c21 (single isomer, unassigned) [Compound A161b]",> 150000 nM,2630 nM
"CC(c1ccc2nccnc2c1)N1C[C@H](C)N(c2cc(=O)n(C)c3sc(CC#N)nc23)C[C@H]1C (single isomer, unassigned) [Compound A194a]",3950 nM,7 nM
"CC(c1cc(F)c2c(n1)OC(C)(C)CO2)N1C[C@H](C)N(c2nc(=O)n(C)c3c2nc(CC#N)n3C)C[C@H]1C (stereo partly drawn) [Compound A164, 2-(6-((2S,5R)-4-(1-(8-fluoro-3,3-dimethyl-2,3-dihydro-[1,4]dioxino[2,3-b]pyridin-6-yl)ethyl)-2,5-dimethylpiperazin-1-yl)-3,9-dimethyl-2-oxo-3,9-dihydro-2H-purin-8-yl)acetonitrile]",125000 nM,31 nM
"Cc1ccc(C(C)N2C[C@H](C)N(c3nc(=O)n(C)c4c3nc(CC#N)n4C)C[C@H]2C)c(C(F)(F)F)c1 (single isomer, unassigned) [Compound A32a]",> 10000 nM,3740 nM
"COc1cc(F)ccc1C(C)N1C[C@H](C)N(c2cc(=O)n(C)c3c2nc(CC#N)n3C)C[C@H]1C (single isomer, unassigned) [Compound A4b]",> 10000 nM,64 nM
"CC(c1ccc2c(n1)OC(C)(C)CO2)N1C[C@H](C)N(c2nc(=O)n(C)c3c2nc(CC#N)n3CC(F)F)C[C@H]1C (stereo partly drawn) [Compound A165, 2-(9-(2,2-difluoroethyl)-6-((2S,5R)-4-(1-(3,3-dimethyl-2,3-dihydro-[1,4]dioxino[2,3-b]pyridin-6-yl)ethyl)-2,5-dimethylpiperazin-1-yl)-3-methyl-2-oxo-3,9-dihydro-2H-purin-8-yl)acetonitrile]",> 150000 nM,69 nM
"Cc1ccc(C(C)N2C[C@H](C)N(c3nc(=O)n(C)c4c3nc(CC#N)n4C)C[C@H]2C)c(C(F)(F)F)c1 (single isomer, unassigned) [Compound A32b]",5590 nM,138 nM
"Cc1cnc2ccc(C(C)N3C[C@H](C)N(c4nc(=O)n(C)c5c4nc(CC#N)n5C)C[C@H]3C)cc2n1 (single isomer, unassigned) [Compound A49a]",77900 nM,6 nM
"CCn1c(CC#N)nc2c(N3C[C@@H](C)N(C(C)c4ccc5c(n4)OC(C)(C)CO5)C[C@@H]3C)nc(=O)n(C)c21 (stereo partly drawn) [Compound A74, 2-(6-((2S,5R)-4-(1-(3,3-dimethyl-2,3-dihydro-[1,4]dioxino[2,3-b]pyridin-6-yl)ethyl)-2,5-dimethylpiperazin-1-yl)-9-ethyl-3-methyl-2-oxo-3,9-dihydro-2H-purin-8-yl)acetonitrile]",> 150000 nM,45 nM
"COC[C@H]1CN(C(C)c2ccc3c(c2)OC(C)(C)CO3)[C@H](C)CN1c1nc(=O)n(C)c2c1nc(CC#N)n2C (single isomer, unassigned) [Compound A12a]",18800 nM,2.7 nM
